Where a name gives a salt, the structure may show the parent alone. Read-outs that look alike come from different tables or passages of the source.
What was measured:
CDK2/cyclin E1 = biological target: T1, CDK2/cyclin E1 (Homo sapiens, UniProt P24941); test: In vitro CDK2/cyclinE enzyme activity assay (TR-FRET); format: biochemical; details: CDK2/cyclin E1, 1 mM ATP, 120 min at 25 °C
T1 construct: purchased SignalChem
Protocol: CDK2/cyclin E1 was purchased from SignalChem. Ulight-4E-BP1 peptide, Eu-anti-phospho-tyrosine antibody, and 1X detection buffer solution were purchased from PerkinElmer. High-purity adenosine triphosphate (ATP) was purchased from Promega. Ethylenediaminetetraacetic acid (EDTA) was purchased from Sigma. Nivo multimode plate reader (PerkinElmer) was used.
Preparation of Kinase Buffer Solution: The kinase buffer solution consisted 50 mM HEPES, 1 mM EDTA, 10 mM MgCl2, and 0.01% Brij-35, with pH of 7.4. 2.38 g HEPES, 58 mg EDTA, 406 mg MgCl2, and 20 mg Brij-35 were added to 200 mL buffer, and the pH was adjusted to 7.4.
(§1) The stop solution was prepared by mixing 100 µL of 1 M EDTA stock solution with […] of 1X detection buffer solution and 1725 µL of distilled water.
The enzyme, Ulight-4E-BP1 peptide, ATP, and the inhibitor were diluted using the kinase buffer solution. The Eu-anti-phospho-tyrosine antibody was diluted to a concentration of 8 nM/L using the detection buffer solution. The test compound was serially diluted 5-fold using a multichannel pipette to the 8th concentration, i.e., from 4 µM to 0.0512 nM. The final concentration of DMSO was 4%, and the experiment was set up with duplicate wells. 2.5 µL of each gradient concentration of the inhibitor, 5 µL of CDK2/cyclin E1 enzyme (10 ng), and 2.5 µL of a mixture of substrate and ATP (4 mM ATP, 100 nM Ulight-4E-BP1 peptide) were added to a microplate, resulting in a final concentration gradient of the compound from 1 µM to 0.0128 nM, with final ATP and substrate concentrations of 1 mM and 25 nM, respectively. The reaction system was incubated at 25 °C for 120 minutes. After the reaction, 5 µL of the stop solution was added to each well, and further reacted at 25 °C for 5 minutes to terminate the reaction. Then 5 µL of Eu-anti-phospho-tyrosine antibody dilution was added to each well, and the mixture was reacted at 25 °C for 60 minutes. Data were collected using the PerkinElmer Nivo multimode plate reader in TR-FRET mode (excitation wavelength: 320 nm; emission wavelengths: 615 nm and 665 nm).
(§2) The raw data were converted to inhibition rates according to the equation (Sample-Min)/(Max-Min)×100%. The IC50 value was obtained by fitting the data to a four-parameter curve (using log(inhibitor) vs. response -- Variable slope model in GraphPad Prism).

CDK1/cyclin B1 = biological target: T2, CDK1/cyclin B1 (Homo sapiens, UniProt P06493); test: In vitro CDK1/cyclin B1 enzyme activity assay (TR-FRET); format: biochemical
T2 construct: purchased Carna Biosciences
Protocol: CDK1/cyclin B1 was purchased from Carna Biosciences. Ulight-4E-BP1 peptide, Eu-anti-phospho-tyrosine antibody, and 1X detection buffer were purchased from PerkinElmer. High-purity ATP was purchased from Promega. EDTA was purchased from Sigma. Nivo multimode plate reader (PerkinElmer) was used.
Preparation of Kinase Buffer Solution: The kinase buffer solution consisted 50 mM HEPES, 1 mM EDTA, 10 mM MgCl2, and 0.01% Brij-35, with pH of 7.4.
as §1
The enzyme, Ulight-4E-BP1 peptide, ATP, and the inhibitor were diluted using the kinase buffer solution.
The Eu-anti-phospho-tyrosine antibody was diluted to a concentration of 8 nM/L using the detection buffer solution.
The final concentration of DMSO was 4%, and the experiment was set up with duplicate wells. […] The reaction system was incubated at 25 °C for 60 minutes. After the reaction, 5 µL of the stop solution was added to each well, and further reacted at 25 °C for 5 minutes to terminate the reaction. Then 5 µL of Eu-anti-phospho-tyrosine antibody dilution was added to each well, and the mixture was incubated at 25 °C for 60 minutes.
The IC50 value was obtained by fitting the data to a four-parameter curve (using log(inhibitor) vs. response -- Variable slope model in GraphPad Prism).

T-47D cells = test: In vitro T-47D cell viability assay (CellTiter-Glo); format: cell-based; details: Homo sapiens, T47D, 168 h, 7 days incubation
Protocol: 1640 medium, fetal bovine serum, and penicillin/streptomycin antibiotics were purchased from Wisent. CellTiter-Glo (cell viability chemiluminescence assay reagent) was purchased from Promega. The T-47D cell line was purchased from Nanjing Cobioer Biosciences Co., Ltd. Envision multimode plate reader (PerkinElmer) was used.
T-47D cells were seeded into a white 384-well plate, with 40 µL of cell suspension containing 300 T-47D cells per well. The cell plate was incubated overnight in a CO2 incubator.
The test compound was serially diluted 5-fold using a multichannel pipette to the 8th concentration, i.e., from 2000 µM to […]. The experiment was set up with duplicate wells. 78 µL of culture medium was added to an intermediate plate, and 2 µL per well of the gradient-diluted compound was transferred to the corresponding position in the intermediate plate. After mixing, 10 µL per well of the mixture was transferred to the cell plate. The concentration range of the compound transferred to the cell plate was from 10 µM to 0.026 nM. The cell plate was incubated in a CO2 incubator for 7 days. Another cell plate was prepared, and the signal value was read on the day of compound addition to serve as the maximum value (Max in the equation below) for data analysis. 10 µL per well of CellTiter-Glo reagent was added to the cell plate, and the cell plate was incubated at room temperature for 10 minutes to stabilize the luminescence signal. The signal was read using the Envision multimode plate reader.
10 µL per well of CellTiter-Glo reagent was added to the cell plate, and the cell plate was incubated at room temperature for 10 minutes to stabilize the luminescence signal. The signal was read using the Envision multimode plate reader.
as §2, with “using” for “according to”, “Prism). Table 1 provides the inhibitory activity of the compounds of the present application against T-47D cell proliferation.” for “Prism).”

[1] = CDK1/cyclin B1, 1 mM ATP, 60 min at 25 °C, Table 1, read-out: CDK1 IC50
[2] = exact values stated in the text below Table 1, read-out: IC50 against CDK1

T2 sequence (P06493 whole entry): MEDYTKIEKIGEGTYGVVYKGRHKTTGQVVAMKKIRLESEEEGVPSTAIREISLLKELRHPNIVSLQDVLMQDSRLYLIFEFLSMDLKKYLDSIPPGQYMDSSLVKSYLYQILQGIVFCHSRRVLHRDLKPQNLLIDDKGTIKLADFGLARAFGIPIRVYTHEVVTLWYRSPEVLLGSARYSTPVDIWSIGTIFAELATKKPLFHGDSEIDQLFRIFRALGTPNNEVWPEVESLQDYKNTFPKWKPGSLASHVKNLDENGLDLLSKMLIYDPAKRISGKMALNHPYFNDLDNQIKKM
T2 sequence (P14635 whole entry partner): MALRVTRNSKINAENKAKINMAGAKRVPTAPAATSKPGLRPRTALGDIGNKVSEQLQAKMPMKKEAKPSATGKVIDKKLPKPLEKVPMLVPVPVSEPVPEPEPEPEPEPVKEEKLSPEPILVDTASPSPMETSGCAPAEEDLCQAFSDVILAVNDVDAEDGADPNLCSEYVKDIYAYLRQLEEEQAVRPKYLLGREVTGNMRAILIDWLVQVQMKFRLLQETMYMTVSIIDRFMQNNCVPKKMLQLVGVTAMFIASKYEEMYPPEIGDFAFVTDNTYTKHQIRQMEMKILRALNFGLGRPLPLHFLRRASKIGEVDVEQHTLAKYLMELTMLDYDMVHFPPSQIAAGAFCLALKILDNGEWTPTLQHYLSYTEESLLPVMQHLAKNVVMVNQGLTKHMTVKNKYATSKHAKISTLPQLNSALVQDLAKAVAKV

Row | IC50 (CDK2/cyclin E1) [µM] | IC50 (CDK1/cyclin B1; [1]) [µM] | IC50 (CDK1/cyclin B1; [2]) [µM] | IC50 (T-47D cells) [µM] | Compound
1 | 0.0068 | > 1 | 1.5 | 0.193 | CONCc1nn2ccnc(Nc3cc([C@H]4CC[C@@H](OC(=O)NC(C)C)C4)[nH]n3)c2c1F [Compound 5]
2 | 0.0074 | > 1 | 3.49 | 0.384 | CON(C)Cc1nn2ccnc(Nc3cc([C@H]4CC[C@@H](OC(=O)NC(C)C)C4)[nH]n3)c2c1F [Compound 6]
3 | 0.0041 | > 1 | 4.08 | 0.465 | CON(C)Cc1nn2ccnc(Nc3cc([C@H]4CC[C@@H](OC(=O)NC(C)C)C4)[nH]n3)c2c1C [Formate salt of compound 2]
